One series deals with NB4 naïve cells. As to the kind of experiment: Viability of NB4 naïve cells (apoptosis assay, Annexin V/7AAD). The class given is cell-based. Particulars: 48 hours. Here is the method:
(§1) In particular, the effects of Metformin, Dichloroacetate (DCA) and Artesunate (ART) in combination with arsenic trioxide were evaluated. […] Methods i) In vitro cytotoxicity assay: 10^5 cells/well were seeded in a 96 well plate and treated with increasing concentration of artesunate and arsenic trioxide and incubated for 48 hours. At the end of 48 hrs MTT was added, followed by SDS to solubilize the formazan crystals formed by the viable cells. The absorbance was measured on an ELISA plate reader SpectraMaxM4 (Molecular Devices) at a test wavelength of 570 nm and a reference wavelength of 630 nm to measure the optical density. […] An IC-50 value was generated if significant cytotoxicity was detected. […] CO2 incubator, the viability of the leukemic cells was measured using an Annexin V/7-aminoactinomycin D (7AAD) apoptosis assay kit (BD Pharmingen, San Diego, Calif., USA) as per the manufacturer's protocol. The flow cytometry data were analysed using Cell Quest pro software (BD Biosciences, San Jose, Calif., USA). iii) Measurement of Glucose Uptake: 5×10^5 cells were stained with 2-NBDG (fluorescent analogue of 2-Deoxyglucose) for 10 minutes, washed and the fluorescence measured at 485 nm/595 nm using Spectramax M4. […] The ratio of red to green fluorescence (590/530) was calculated and the Δψm of treated cells compared with the untreated cells.

Series [1] has as its system ATO resistant cell lines (NB4-EVAsR1, UF-1). As to the kind of experiment: Viability of ATO resistant cell lines (apoptosis assay). It is filed as cell-based. Particulars: NB4-EVAsR1 and UF-1; 48 hours. The method, then:
as §1

The test system of a further series is U937 cells. As to the kind of experiment: Viability of U937 cells (apoptosis assay, Annexin V/7AAD). The class given is cell-based. The note with it: 48 hours.
For series [2] the following is noted: mouse, in vivo.
Method: To further validate this in vitro observation, in vivo studies were performed on a mouse model of acute promyelocytic leukemia.
The test system of series [3] is malignant cells (NB4 naïve, NB4-EVAsR1, U937, THP-1, Kasumi, Jurkat cell lines). In words: Apoptosis assay on leukemic cell lines (FIG. 5). It is filed as cell-based. Particulars: 2 μM ATO, 5 μM ART, 48 hours. Here is the method:
as §1

In series [4] the test system is acute promyelocytic leukemia (APL). The note with it: standard of care; cited from earlier work.

The values that follow come from patent US11400112B2, “Combination therapy for treatment of leukemia” (St George's Hospital Medical School, priority 2018, dated 2022).

Method for U937 cells: The half-maximal inhibitory concentration (IC-50) values were generated using Graph Pad Prism5 software (La Jolla, Calif., USA). ii) Apoptosis Assay: Leukemic cell lines were added (2×10^5 cells/well) in 24-well plates and treated with different drugs reported to disrupt the metabolic adaptation of the leukemia cells along with appropriate controls. After 48 h of incubation at 37° C. CO2 incubator, the viability of the leukemic cells was measured using an Annexin V/7-aminoactinomycin D (7AAD) apoptosis assay kit (BD Pharmingen, San Diego, Calif., USA) as per the manufacturer's protocol. The flow cytometry data were analysed using Cell Quest pro software (BD Biosciences, San Jose, Calif., USA). iii) Measurement of Glucose Uptake: 5×10^5 cells were stained with 2-NBDG (fluorescent analogue of 2-Deoxyglucose) for 10 minutes, washed and the fluorescence measured at 485 nm/595 nm using Spectramax M4.

As to `O=CC[C@@H](O)[C@H](O)[C@H](O)CO` [2-DOG, 2-Deoxy-D-glucose], the “viability of NB4 naïve cells” value in the series with NB4 naïve cells was “sensitive”. In addition, the “viability of the ATO resistant cell lines” value in series [1] is reported as “resistant”. As for `NCC(=O)CCC(=O)O` [ALA, Delta-aminolevulinic acid], the “viability of AML cells (Annexin V-/7AAD- cells)” value in the series with U937 cells (ATO 1 μM, ART 5 μM, ALA 1 mM, DFO 20 μM, FIG. 7) was “did not affect”. In addition, the toxicity in mice entry in series [2] was “significant toxicity”. Turning to `C[C@H]1[C@H](OC(=O)CCC(=O)O)O[C@@H]2O[C@@]3(C)CC[C@H]4[C@H](C)CC[C@@H]1[C@@]24OO3` [ART, artesunate], the “effect on the malignant cells (Annexin V-/7AAD- cells)” value in series [3] was “did not have a significant effect”. For `N#CC(C#N)=NNc1ccc(OC(F)(F)F)cc1` [FCCP, Carbonyl cyanide-4-(trifluoromethoxy)phenylhydrazone], in series [1], the “viability of the ATO resistant cell lines” value is on record as “remained unaffected”. Turning to `CN(C)C(=N)N=C(N)N` [Metformin], in series [3], the “effect on the malignant cells (Annexin V-/7AAD- cells)” value is “did not have a significant effect”. Consider Arsenic trioxide [ATO], for which, in series [4], the “outcome in the management of APL” value is listed as “greater than 80%”. On to hemin, for which the “viability of AML cells (Annexin V-/7AAD- cells)” value with U937 cells (hemin instead of ALA, FIG. 8) is listed as “did not affect”.
